Experimental data taken from ChEMBL document CHEMBL3044528, “Potential new fungicides: N-acyl-5-methyl-3(2H)-isoxazolone derivatives” (2012).

Experiments:
Assay type in all cases: functional
Rhizoctonia solani = assay: Fungicidal activity against Rhizoctonia solani ET0007 assessed as mycelial growth inhibition at 25 mg/L after 1 day; settings: ET0007, 24 h, read-out: GI
Pyrenophora graminea = assay: Fungicidal activity against Pyrenophora graminea IFO-7507 assessed as mycelial growth inhibition at 25 mg/L after 3 days; settings: IFO-7507, 72 h, read-out: GI
Cercospora beticola = assay: Fungicidal activity against Cercospora beticola Be-2-6 assessed as mycelial growth inhibition at 25 mg/L after 7 days; settings: Be-2-6, 168 h, read-out: GI
Microdochium nivale = assay: Fungicidal activity against Microdochium nivale IFO-7432 assessed as mycelial growth inhibition at 25 mg/L after 3 days; settings: IFO-7432, 72 h, read-out: GI
Rhynchosporium secalis = assay: Fungicidal activity against Rhynchosporium secalis IFO-5290 assessed as mycelial growth inhibition at 25 mg/L after 14 days; settings: IFO-5290, 336 h, read-out: GI
Alternaria alternata = assay: Fungicidal activity against Alternaria alternata APS-38 assessed as mycelial growth inhibition at 25 mg/L after 3 days; settings: APS-38, 72 h, read-out: GI
Gaeumannomyces graminis = assay: Fungicidal activity against Gaeumannomyces graminis MAFF305168 assessed as mycelial growth inhibition at 25 mg/L after 1 day; settings: MAFF305168, 24 h, read-out: GI
Zymoseptoria tritici = assay: Fungicidal activity against Zymoseptoria tritici S3 assessed as mycelial growth inhibition at 25 mg/L after 14 days; settings: S3, 336 h, read-out: GI
Fusarium graminearum = assay: Fungicidal activity against Fusarium graminearum H3 assessed as mycelial growth inhibition at 25 mg/L after 3 days; settings: H3, 72 h, read-out: GI

| Compound | inhibition of growth at 25 µg/mL (Rhizoctonia solani) [%] | inhibition of growth at 25 µg/mL (Pyrenophora graminea) [%] | inhibition of growth at 25 µg/mL (Cercospora beticola) [%] | inhibition of growth at 25 µg/mL (Microdochium nivale) [%] | inhibition of growth at 25 µg/mL (Rhynchosporium secalis) [%] | inhibition of growth at 25 µg/mL (Alternaria alternata) [%] | inhibition of growth at 25 µg/mL (Gaeumannomyces graminis) [%] | inhibition of growth at 25 µg/mL (Zymoseptoria tritici) [%] | inhibition of growth at 25 µg/mL (Fusarium graminearum) [%] |
| --- | --- | --- | --- | --- | --- | --- | --- | --- | --- |
| Cc1cc(=O)n(C(=O)CCC(F)(F)F)o1 | 57 | 46 | 89 | 54 | 98 | 61 | 60 | 65 | 32 |
| Cc1cc(=O)n(Cc2ccccc2)o1 | 10 | 46 | 4 | 4 | 0 | 9 | 0 | 6 | 6 |
| Cc1cc(C)c(C(=O)n2oc(C)cc2=O)c(C)c1 | 3 | 90 | 11 | 4 | 0 | 22 | 22 | 10 | 10 |
| Cc1cc(=O)n(C(=O)/C=C/c2ccoc2)o1 | 90 | 96 | 91 | 68 | 100 | 60 | 72 | 53 | 44 |
| Cc1cc(=O)n(C(=O)/C=C/c2ccccc2)o1 | 92 | 90 | 91 | 59 | 100 | 67 | 0 | 62 | 26 |
| CCn1oc(C)cc1=O | 0 | 6 | 2 | 0 | 13 | 21 | 3 | 0 | 4 |
| Cc1cc(=O)n(C(=O)C(C)c2ccccc2)o1 (stereo not given) | 20 | 74 | 86 | 55 | 99 | 48 | 5 | 83 | 33 |
| CC(=O)n1oc(C)cc1=O | 26 | 72 | 92 | 79 | 100 | 90 | 72 | 98 | 50 |
| Cc1cc(=O)n(C(=O)/C=C/c2cccs2)o1 | 75 | 89 | 77 | 60 | 100 | 54 | 16 | 78 | 40 |
| Cc1cc(=O)n(C(=O)CC(C)(C)C)o1 | 71 | 76 | 93 | 76 | 96 | 64 | 97 | 70 | 47 |
| Cc1cc(=O)n(C(=O)CCCCC(=O)n2oc(C)cc2=O)o1 | 18 | 91 | 93 | 61 | 100 | 81 | 56 | 52 | 27 |
| CCC(=O)n1oc(C)cc1=O | 22 | 88 | 94 | 68 | 100 | 87 | 50 | 69 | 32 |
| Cc1cc(=O)n(C(=O)C2(c3ccccc3)CC2(Cl)Cl)o1 (stereo not given) | 46 | 89 | 85 | 58 | 99 | 50 | 9 | 69 | 32 |
| COCC(=O)n1oc(C)cc1=O | 68 | 82 | 91 | 45 | 100 | 62 | 54 | 63 | 37 |
| Cc1cc(=O)n(C(=O)C2CCc3ccccc3C2)o1 (stereo not given) | 50 | 73 | 80 | 82 | 100 | 64 | 57 | 95 | 40 |
| Cc1cc(=O)n(C(=O)C(C)(C)C)o1 | 43 | 95 | 85 | 82 | 100 | 84 | 83 | 64 | 40 |
| CSCCC(=O)n1oc(C)cc1=O | 62 | 76 | 92 | 50 | 99 | 64 | 58 | 67 | 37 |
| Cc1cc(=O)n(C(=O)c2ccccc2I)o1 | 57 | 92 | 88 | 61 | 100 | 33 | 25 | 47 | 36 |
| Cc1cc(=O)n(C(=O)/C=C/c2ccc(Cl)cc2)o1 | 66 | 77 | 77 | 45 | 100 | 54 | 20 | 77 | 43 |
| CCCn1oc(C)cc1=O | 15 | 16 | 4 | 4 | 2 | 11 | 3 | 0 | 8 |
